Laboratory results from patent US12065654B2, “Plants having increased tolerance to herbicides” (BASF SE, priority 2014, dated 2024).

Tests used:
[1] = test system: Arabidopsis wild-type control; experiment: Germination assay in 48-well plates; format: in vivo, Arabidopsis thaliana; settings: plant growth IC50 ratio to wildtype, mean of 5 T2 events
Protocol: (§1) Depending on the species, the plants are kept at 10-25° C. or 20-35° C. The test period extends over 3 weeks. During this time, the plants are tended and their response to the individual treatments is evaluated. Herbicide injury evaluations are taken at 2 and 3 weeks after treatment. Plant injury is rated on a scale of 0 to 9, 0 being no injury and 9 being complete death. Tolerance to HPPD-inhibiting, preferably pyrazolone, isoxazole, or triketone derivative herbicides can also be assessed in Arabidopsis. In this case transgenic Arabidopsis thaliana plants are assayed for improved tolerance to HPPD-inhibiting, preferably pyrazolone, isoxazole, or triketone derivative herbicides in 48-well plates. Seeds are surface sterilized by stirring for 5 min in ethanol+water (70+30 by volume), rinsing one time with ethanol+water (70+30 by volume) and two times with a sterile, deionized water. The seeds are resuspended in 0.1% agar dissolved in water (w/v). Four to five seeds per well are plated on solid nutrient medium consisting of half-strength Murashige Skoog nutrient solution, pH 5.8 (Murashige and Skoog (1962) Physiologia Plantarum 15: 473-497). Compounds are dissolved in dimethylsulfoxid (DMSO) and added to the medium prior solidification (final DMSO concentration 0.1%). Multi well plates are incubated in a growth chamber at 22° C., 75% relative humidity and 110 μmol Phot*m−2*s−1 with 14:10 h light:dark photoperiod. Seven to ten days after seeding growth inhibition is evaluated by comparison to wild type plants. Tolerance factor is calculated by dividing the plant growth IC50 value of transgenic plants containing a HPPD and/or HST sequence by that of wildtype plants.

[2] = test system: Arabidopsis overexpression line Arabidopsis HPPD; experiment: Germination assay in 48-well plates; format: in vivo, Arabidopsis thaliana; settings: plant growth IC50 transgenic / wildtype, mean of 5 T2 events
Protocol: as §1

[3] = test system: Arabidopsis overexpression line Synechocystis HPPD; experiment: Germination assay in 48-well plates; format: in vivo, Arabidopsis thaliana; settings: IC50 transgenic / wildtype, mean of 5 T2 events
Protocol: as §1

[4] = test system: transgenic soybean plants AtHPPD M335H, event SDS-9863; experiment: Greenhouse testing of soybean plants; format: in vivo, Glycine max; settings: soybean AtHPPD M335H SDS-9863, 14 days, average of 8 T1 individuals
Protocol: (§2) Transgenic plants expressing heterologous HPPD or HST enzymes are tested for tolerance against HPPD-inhibiting, preferably pyrazolone, isoxazole, or triketone derivative herbicides in greenhouse experiments.
(§3) For post emergence treatment, the test plants are first grown to a height of 3 to 15 cm, depending on the plant habit, and only then treated with the herbicides. For this purpose, the test plants are either sown directly and grown in the same containers, or they are first grown separately and transplanted into the test containers a few days prior to treatment.
(§4) For testing of T0 plants, cuttings can be used. In the case of soybean plants, an optimal shoot for cutting is about 7.5 to 10 cm tall, with at least two nodes present. Each cutting is taken from the original transformant (mother plant) and dipped into rooting hormone powder (indole-3-butyric acid, IBA). The cutting is then placed in oasis wedges inside a bio-dome. Wild type cuttings are also taken simultaneously to serve as controls. The cuttings are kept in the bio-dome for 5-7 days and then transplanted to pots and then acclimated in the growth chamber for two more days. Subsequently, the cuttings are transferred to the greenhouse, acclimated for approximately 4 days, and then subjected to spray tests as indicated.
as §1, with “Plant injury is rated on a scale of 0 to 9, 0 being no injury and 9 being complete death.” left out
(§5) Transgenic soy plants were sprayed with a range of doses from 6.25-100 g/ha with an HPPD-inhibiting herbicide and injury evaluations were taken two weeks after treatment. […] Compared to the untransformed wild-type, plants comprising polynucleotides encoding for Arabidopsis HPPD wild-type or mutated versions thereof were less susceptible to Inhibitor 1.

[5] = test system: transgenic soybean plants GmHPPD, event SDS-10298; experiment: Greenhouse testing of soybean plants; format: in vivo, Glycine max; settings: soybean GmHPPD SDS-10298, 14 days, average of 8 T1 individuals
Protocol: as §2, §3, §4
as §1, with “Plant injury is rated on a scale of 0 to 9, 0 being no injury and 9 being complete death.” left out
as §5

[6] = test system: soybean plants, transgene none (WT); experiment: Greenhouse testing of soybean plants; format: in vivo, Glycine max; settings: no transgene, 14 days after treatment
Protocol: as §2, §3, §4
as §1, with “Plant injury is rated on a scale of 0 to 9, 0 being no injury and 9 being complete death.” left out
as §5

Row | Structure (SMILES) | Tolerance factor [1] | Tolerance factor [2] | Tolerance factor [3] | Injury evaluation (bleaching phenotype, scale of 1-100) ([4]; 6.25 g/ha) [%] | Injury evaluation (bleaching phenotype, scale of 1-100) ([4]; 25 g/ha) [%] | Injury evaluation (bleaching phenotype, scale of 1-100) ([4]; 100 g/ha) [%] | Injury evaluation (bleaching phenotype, scale of 1-100) ([5]; 6.25 g/ha) [%] | Injury evaluation (bleaching phenotype, scale of 1-100) ([5]; 25 g/ha) [%] | Injury evaluation (bleaching phenotype, scale of 1-100) ([5]; 100 g/ha) [%] | Injury evaluation (bleaching phenotype, scale of 1-100) ([6]; 25 g/ha) [%] | Injury evaluation (bleaching phenotype, scale of 1-100) ([6]; 100 g/ha) [%]
1 | CS(=O)(=O)c1ccc(C(=O)C2C(=O)CCCC2=O)c([N+](=O)[O-])c1 [Inhibitor 2, 2-(4-methylsulfonyl-2-nitro-benzoyl)cyclohexane-1,3-dione] | 1 | 10 | 10 |  |  |  |  |  |  |  | 
2 | Cc1c(C(=O)c2cnn(C)c2O)ccc(S(C)(=O)=O)c1C1=NOCC1 [Inhibitor 1, [3-(4,5-dihydroisoxazol-3-yl)-2-methyl-4-methylsulfonyl-phenyl]-(5-hydroxy-1-methyl-pyrazol-4-yl)methanone] | 1 | 9 | 7.5 | 0 | 4 | 59 | 20 | 58 | 83 | 90 | 90
